Assay results published in patent publication US11000033B2, “Ketone or oxime compound, and herbicide” (NISSAN CHEMICAL CORPORATION, priority 2014, dated 2021).

Key:
Type in all cases: in vivo
[1] = tested on: Alopecurus myosuroides; assay: Test Example 4: herbicidal effect by soil treatment (symbol J)
Outline: (§1)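 Seeds were sown in sterilized diluvial soil, covered with about 1.5 cm of soil, and the soil surface was sprayed with a water-diluted emulsion of the compound at a predetermined rate. Plants grew in a greenhouse at 25° C. to 30° C.; effects were scored visually 3 weeks after application.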

[2] = tested on: Apera spica-venti; assay: Test Example 4: herbicidal effect by soil treatment (symbol L)
Outline: as §1

[3] = tested on: Echinochloa crus-galli var. crus-galli; assay: Test Example 3: herbicidal effect by foliage application, Wagner pot (symbol H); details: application herbicide amount 320 g/ha
Outline: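 Herbicidal activity was rated three weeks after a foliar spray of diluted emulsion concentrate, applied at a predetermined dose to plants grown for 14 days from seed in waterlogged alluvial soil within a 25–30 °C greenhouse.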

[4] = tested on: Avena fatua; assay: Test Example 4: herbicidal effect by soil treatment (symbol I)
Outline: as §1

[5] = tested on: Scirpus juncoides; assay: Test Example 2: herbicidal activity, application during weed generation in submerged conditions (symbol B); details: Table 23; application herbicide amount 320 g/ha; grade 0-5 by criteria of Test Example 1
Outline: (§2)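 Visual herbicidal ratings, taken three weeks after dosing, reflect post-emergence water-surface application to seedlings at one to two leaves. Conditions: co-sown weeds in alluvial soil flooded to 4 cm, greenhouse held at 25° C. to 30° C.; compound given as water-diluted emulsion at a fixed herbicide amount.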

[6] = tested on: Echinochloa oryzacola Vasing.; assay: Test Example 2: herbicidal activity, application during weed generation in submerged conditions (symbol A); details: Table 23; application herbicide amount 320 g/ha; grade 0-5 by criteria of Test Example 1
Outline: as §2

[7] = tested on: corn; assay: Test Example 4: effect on crop by soil treatment (symbol c)
Outline: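 Steps: fill box with sterilized diluvial soil; sow seed spot-like; cover with ~1.5 cm soil; grow in greenhouse (25° C. to 30° C.).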

[8] = tested on: Amaranthus retroflexus; assay: Test Example 5: herbicidal effect by foliage application, plastic box (symbol N); details: 320 g/ha, 3 weeks after application
Outline: (§3)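 After sowing into sterilized diluvial soil and growing two weeks under glass at 25° C. to 30° C., seedlings receive a uniform foliar spray of diluted emulsion. Damage is judged visually three weeks on.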

[9] = tested on: Alopecurus myosuroides; assay: Test Example 5: herbicidal effect by foliage application, plastic box (symbol J); details: 320 g/ha, 3 weeks after application
Outline: as §3

[10] = tested on: Abutilon theophrasti; assay: Test Example 4: herbicidal effect by soil treatment (symbol M)
Outline: as §1

[11] = tested on: corn; assay: Test Example 5: effect on crop by foliage application, plastic box (symbol c); details: 320 g/ha, 3 weeks after application
Outline: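 Soil: sterilized diluvial. Container: plastic box, 21 × 13 cm, 7 cm deep. Sowing: spot-like, ~1.5 cm cover. Growth: greenhouse, 25° C. to 30° C.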

[12] = tested on: transplanted rice plant; assay: Test Example 1: effect on crop, application before weed generation in submerged conditions (symbol a); details: application herbicide amount 320 g/ha
Outline: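 Alluvial soil pots flooded to 4 cm water, sown with Echinochloa oryzacola, Scirpus juncoides and Monochoria vaginalis, then transplanted with 2.5 leaf stage rice seedlings; pre-emergence application. Greenhouse 25° C. to 30° C.; scored 0–5 by herbicidal ratio 3 weeks after application.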

[13] = tested on: Digitaria ciliaris; assay: Test Example 5: herbicidal effect by foliage application, plastic box (symbol F); details: 320 g/ha, 3 weeks after application
Outline: as §3

[14] = tested on: Veronica persica; assay: Test Example 5: herbicidal effect by foliage application, plastic box (symbol R); details: 320 g/ha, 3 weeks after application
Outline: as §3

[15] = application herbicide amount 320 g/ha

Question: For `CON=C(C)CC1CC(OS(C)(=O)=O)=C(c2c(C)cc(C)cc2C)C1=O` (stereo not drawn) [1-006], which “J (Alopecurus myosuroides) herbicidal effect grade” value [1, 15] is on record?
Answer: Its value is 4 (Herbicidal ratio of 70% or higher and lower than 90%).

Question: What about the “L (Apera spica-venti) herbicidal effect grade” value [2, 15] of the same compound?
Answer: Its value is 5 (Herbicidal ratio of 90% or more (almost completely withered)).

Question: What about the “herbicidal effect on H (Echinochloa crus-galli var. crus-galli), grade 0-5” value [3] of the same compound?
Answer: Its value is 5 (Herbicidal ratio of 90% or more (almost completely withered)).

Question: What about the “I (Avena fatua) herbicidal effect grade” value [4, 15] of the same compound?
Answer: The value was 3 (Herbicidal ratio of 40% or higher and lower than 70%).

Question: And the “Herbicidal effect grade, B: Scirpus juncoides” value [5]?
Answer: The value was 3 (Herbicidal ratio of 40% or higher and lower than 70%).

Question: And the “Herbicidal effect grade, A: Echinochloa oryzacola Vasing.” value [6]?
Answer: The value was 5 (Herbicidal ratio of 90% or more (almost completely withered)).

Question: What about the “c (corn) effect on crop grade” value [7, 15] of the same compound?
Answer: Its value is 1 (Herbicidal ratio of 5% or higher and lower than 20%).

Question: And the “N: Amaranthus retroflexus, herbicidal effect grade” value [8]?
Answer: Its value is 3 (Herbicidal ratio of 40% or higher and lower than 70%).

Question: And the “J: Alopecurus myosuroides, herbicidal effect grade” value [9]?
Answer: Its value is 5 (Herbicidal ratio of 90% or more (almost completely withered)).

Question: What about the “M (Abutilon theophrasti) herbicidal effect grade” value [10, 15] of the same compound?
Answer: Its value is 4 (Herbicidal ratio of 70% or higher and lower than 90%).

Question: What about the “c: corn, effect on crop grade” value [11] of the same compound?
Answer: Its value is 3 (Herbicidal ratio of 40% or higher and lower than 70%).

Question: And the “Effect grade on crop, a: transplanted rice plant” value [12]?
Answer: The value was 4 (Herbicidal ratio of 70% or higher and lower than 90%).

Question: And the “F: Digitaria ciliaris, herbicidal effect grade” value [13]?
Answer: The value was 5 (Herbicidal ratio of 90% or more (almost completely withered)).

Question: What about the “R: Veronica persica, herbicidal effect grade” value [14] of the same compound?
Answer: Its value is 2 (Herbicidal ratio of 20% or higher and lower than 40%).

Question: What does the source list for `CON=C(C)CC1(C)CC(O)=C(c2c(C)cc(C)cc2C)C1=O` (mixture of isomers) [11-002]?
Answer: Herbicidal effect grade, J: Alopecurus myosuroides [1, 15]: 3 (Herbicidal ratio of 40% or higher and lower than 70%); Herbicidal effect grade, L: Apera spica-venti [2, 15]: 4 (Herbicidal ratio of 70% or higher and lower than 90%); H (Echinochloa crus-galli var. crus-galli) herbicidal effect grade ([3]; Table 24): 5 (Herbicidal ratio of 90% or more (almost completely withered)); Herbicidal effect grade, I: Avena fatua [4, 15]: 3 (Herbicidal ratio of 40% or higher and lower than 70%); Herbicidal effect grade, B: Scirpus juncoides [5]: 0 (Herbicidal ratio of 5% or lower (almost no effect)); Herbicidal effect grade, A: Echinochloa oryzacola Vasing. [6]: 2 (Herbicidal ratio of 20% or higher and lower than 40%); Effect on crop grade, c: corn [7, 15]: 1 (Herbicidal ratio of 5% or higher and lower than 20%); N: Amaranthus retroflexus, herbicidal effect grade [8]: 0 (Herbicidal ratio of 5% or lower (almost no effect)); J: Alopecurus myosuroides, herbicidal effect grade [9]: 5 (Herbicidal ratio of 90% or more (almost completely withered)); Herbicidal effect grade, M: Abutilon theophrasti [10, 15]: 0 (Herbicidal ratio of 5% or lower (almost no effect)); c: corn, effect on crop grade [11]: 2 (Herbicidal ratio of 20% or higher and lower than 40%); a (transplanted rice plant) effect on crop grade [12]: 2 (Herbicidal ratio of 20% or higher and lower than 40%); F: Digitaria ciliaris, herbicidal effect grade [13]: 4 (Herbicidal ratio of 70% or higher and lower than 90%); R: Veronica persica, herbicidal effect grade [14]: 0 (Herbicidal ratio of 5% or lower (almost no effect))

Question: `CON=C(C)CC1CC(OC(=O)N2CCOCC2)=C(c2c(C)cc(C)cc2C)C1=O` (stereo not drawn) [1-104] was tested. Which “J: Alopecurus myosuroides, herbicidal effect grade” value ([1]; 320 g/ha) did it give?
Answer: The value was 5 (Herbicidal ratio of 90% or more (almost completely withered)).

Question: And the “L: Apera spica-venti, herbicidal effect grade” value ([2]; 320 g/ha)?
Answer: Its value is 5 (Herbicidal ratio of 90% or more (almost completely withered)).

Question: What about the “herbicidal effect on H (Echinochloa crus-galli var. crus-galli), grade 0-5” value [3] of the same compound?
Answer: The value was 5 (Herbicidal ratio of 90% or more (almost completely withered)).

Question: And the “I: Avena fatua, herbicidal effect grade” value ([4]; 320 g/ha)?
Answer: The value was 3 (Herbicidal ratio of 40% or higher and lower than 70%).

Question: What about the “Herbicidal effect grade, B: Scirpus juncoides” value [5] of the same compound?
Answer: Its value is 4 (Herbicidal ratio of 70% or higher and lower than 90%).

Question: And the “Herbicidal effect grade, A: Echinochloa oryzacola Vasing.” value [6]?
Answer: Its value is 5 (Herbicidal ratio of 90% or more (almost completely withered)).

Question: And the “c: corn, effect grade on crop” value ([7]; 320 g/ha)?
Answer: Its value is 1 (Herbicidal ratio of 5% or higher and lower than 20%).

Question: What about the “N: Amaranthus retroflexus, herbicidal effect (criteria 0-5)” value [8] of the same compound?
Answer: Its value is 0 (Herbicidal ratio of 5% or lower (almost no effect)).

Question: And the “J: Alopecurus myosuroides, herbicidal effect (criteria 0-5)” value [9]?
Answer: Its value is 5 (Herbicidal ratio of 90% or more (almost completely withered)).

Question: And the “M: Abutilon theophrasti, herbicidal effect grade” value ([10]; 320 g/ha)?
Answer: Its value is 4 (Herbicidal ratio of 70% or higher and lower than 90%).

Question: And the “c: corn, effect on crop (criteria 0-5)” value [11]?
Answer: Its value is 4 (Herbicidal ratio of 70% or higher and lower than 90%).

Question: What about the “Effect grade on crop, a: transplanted rice plant” value [12] of the same compound?
Answer: The value was 3 (Herbicidal ratio of 40% or higher and lower than 70%).

Question: And the “F: Digitaria ciliaris, herbicidal effect (criteria 0-5)” value [13]?
Answer: Its value is 5 (Herbicidal ratio of 90% or more (almost completely withered)).

Question: And the “R: Veronica persica, herbicidal effect (criteria 0-5)” value [14]?
Answer: Its value is 1 (Herbicidal ratio of 5% or higher and lower than 20%).
